tested on: HCV replicon I389luc-ubi-neo/NS3-3′/ET in ET (Huh-lucubineo-ET) cells; screening for HCV RNA dependent RNA polymerase; test: Replicon Assay (luciferase, ET cell line Huh-lucubineo-ET); type: cell-based; conditions: Hepatitis C virus; inhibition of replication relative to no compound control; test concentration of 10 μM according to the fitted equation; luciferase 48-72 hours
Summary of the method: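 Huh-derived ET cells stably carrying an I389luc-ubi-neo/NS3-3′/ET HCV replicon with a luciferase-ubiquitin-neomycin phosphotransferase fusion and adaptive NS3-5B mutations were cultured in DMEM with 10% fetal calf serum and 250 μg/mL G418. Cells were seeded at 0.5-1.0×10^4 cells/well in 96 well plates and given compound after 24 hrs. Luciferase was read 48-72 hours later with Bright-Glo reagents, and replication inhibition was expressed relative to untreated controls.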

| SMILES | inhibition at 10 µM [%] |
| --- | --- |
| O=C(NC1CC1)c1ccc(-c2csc(NC(=O)C3CCCN3C(=O)OCc3cccnc3)n2)cc1 (centres unmarked) [Compound 5320, 2-[4-(4-Cyclopropylcarbamoyl-phenyl)-thiazol-2-ylcarbamoyl]-pyrrolidine-1-carboxylic acid pyridin-3-ylmethyl ester] | 99.8 |
| O=C(NC1CC1)c1ccc(-c2csc(NC(=O)[C@@H]3CCCN3C(=O)C3(c4ccccc4)CC3)n2)cc1 [Compound 5371, 1-(1-Phenyl-cyclopropanecarbonyl)-pyrrolidine-2-carboxylic acid [4-(4-cyclopropylcarbamoyl-phenyl)-thiazol-2-yl]-amide] | 100 |
| Cc1ccc(-c2csc(NC(=O)[C@@H]3CCCN3C(=O)OCc3ccccc3)n2)c(C)c1 [Compound 5021, 2-[4-(2,4-Dimethyl-phenyl)-thiazol-2-ylcarbamoyl]-pyrrolidine-1-carboxylic acid benzyl ester] | 97 |
| O=C(NC1CCCC1)c1ccc(-c2csc(NC(=O)[C@@H]3CCCN3C(=O)OCc3ccccc3)n2)cc1 [Compound 5100, 2-[4-(4-Cyclopentylcarbamoyl-phenyl)-thiazol-2-ylcarbamoyl]-pyrrolidine-1-carboxylic acid benzyl ester] | 99.1 |
| COc1ccc(-c2csc(NC(=O)[C@@H]3CCCN3C(=O)OCc3ccccc3)n2)cc1[N+](=O)[O-] [Compound 5091, 2-[4-(4-Methoxy-3-nitro-phenyl)-thiazol-2-ylcarbamoyl]-pyrrolidine-1-carboxylic acid benzyl ester] | 100 |
| Cc1ccc(Cc2cnc(NC(=O)[C@@H]3CCCN3C(=O)OCc3ccccc3)s2)cc1Cl [Compound 5025, 2-[5-(3-Chloro-4-methyl-benzyl)-thiazol-2-ylcarbamoyl]-pyrrolidine-1-carboxylic acid benzyl ester] | 2.86 |
| O=C(Nc1nc(-c2cccc(NCC3CC3)c2)cs1)[C@@H]1CCCN1C(=O)OCc1ccccc1 [Compound 5335, 2-{4-[3-(Cyclopropylmethyl-amino)-phenyl]-thiazol-2-ylcarbamoyl}-pyrrolidine-1-carboxylic acid benzyl ester] | 92.5 |
| O=C(NCCN1CCOCC1)c1ccc(-c2csc(NC(=O)C3CCCN3C(=O)OCc3ccccc3)n2)cc1 (centres unmarked) [Compound 5339, 2-{4-[4-(2-Morpholin-4-yl-ethylcarbamoyl)-phenyl]-thiazol-2-ylcarbamoyl}-pyrrolidine-1-carboxylic acid benzyl ester] | 100 |
| O=C(Nc1nc(C2(c3ccccc3)CCCC2)cs1)[C@@H]1CCCN1C(=O)OCc1ccccc1 [Compound 5028, 2-[4-(1-Phenyl-cyclopentyl)-thiazol-2-ylcarbamoyl]-pyrrolidine-1-carboxylic acid benzyl ester] | 98.9 |
| CNc1ccc(-c2csc(NC(=O)C3CCCN3C(=O)OCc3ccccc3)n2)cc1 (centres unmarked) [Compound 5049, 2-[4-(4-Methylamino-phenyl)-thiazol-2-ylcarbamoyl]-pyrrolidine-1-carboxylic acid benzyl ester] | 95.6 |
| O=C(NC1CC1)c1ccc(-c2csc(NC(=O)[C@@H]3[C@@H](O)CCN3C(=O)OCc3ccccc3)n2)cc1 [Compound 5376, 2-[4-(4-Cyclopropylcarbamoyl-phenyl)-thiazol-2-ylcarbamoyl]-3-hydroxy-pyrrolidine-1-carboxylic acid benzyl ester] | 96 |
| CC(C)(C)OC(=O)N1CCC(NC(=O)c2ccc(-c3csc(NC(=O)[C@@H]4CCCN4C(=O)OCc4ccccc4)n3)cc2)CC1 [Compound 5336, 4-(4-{2-[(1-Benzyloxycarbonyl-pyrrolidine-2-carbonyl)-amino]-thiazol-4-yl}-benzoylamino)-piperidine-1-carboxylic acid tert-butyl ester] | 96.3 |
| O=C(NC1CC1)c1ccc(-c2csc(NC(=O)[C@@H]3CCCN3C(=O)COc3ccccc3)n2)cc1 (stereo in doubt) [Compound 5331, 1-(2-Phenoxy-acetyl)-pyrrolidine-2-carboxylic acid [4-(4-cyclopropylcarbamoyl-phenyl)-thiazol-2-yl]-amide] | 43 |
| O=C(Nc1nc(-c2ccccc2Cl)cs1)[C@@H]1CCCN1C(=O)OCc1ccccc1 [Compound 5103, 2-[4-(2-Chloro-phenyl)-thiazol-2-ylcarbamoyl]-pyrrolidine-1-carboxylic acid benzyl ester] | 99.3 |
| O=C(Nc1nc(-c2ccc3c(c2)Cc2ccccc2-3)cs1)[C@@H]1CCCN1C(=O)OCc1ccccc1 [Compound 5058, 2-[4-(9H-Fluoren-2-yl)-thiazol-2-ylcarbamoyl]-pyrrolidine-1-carboxylic acid benzyl ester] | 18.6 |
| O=C(Nc1ccc(-c2csc(NC(=O)[C@@H]3C[C@@H](O)CN3C(=O)OCc3ccccc3)n2)cc1)C1CC1 [Compound 5310, 2-{4-[4-(Cyclopropanecarbonyl-amino)-phenyl]-thiazol-2-ylcarbamoyl}-4-hydroxy-pyrrolidine-1-carboxylic acid benzyl ester] | 99.3 |

| SMILES | inhibition at 10 µM [%] |
| --- | --- |
| CC(C)(C)NC(=O)c1ccc(-c2csc(NC(=O)[C@@H]3CCCN3C(=O)OCc3ccccc3)n2)cc1 [Compound 5326, 2-[4-(4-tert-Butylcarbamoyl-phenyl)-thiazol-2-ylcarbamoyl]-pyrrolidine-1-carboxylic acid benzyl ester] | 100 |
| O=C(Nc1nc(-c2cccnc2)cs1)[C@@H]1CCCN1C(=O)OCc1ccccc1 [Compound 5338, 2-(4-Pyridin-3-yl-thiazol-2-ylcarbamoyl)-pyrrolidine-1-carboxylic acid benzyl ester] | 75.2 |
| O=C(NCCN1CCCCC1)c1ccc(-c2csc(NC(=O)[C@@H]3CCCN3C(=O)OCc3ccccc3)n2)cc1 [Compound 5307, 2-{4-[4-(2-Piperidin-1-yl-ethylcarbamoyl)-phenyl]-thiazol-2-ylcarbamoyl}-pyrrolidine-1-carboxylic acid benzyl ester] | 100 |
| CN(C)c1ccc(-c2csc(NC(=O)C3CCCN3C(=O)OCc3ccccc3)n2)cc1 (centres unmarked) [Compound 5013, 2-[4-(4-Dimethylamino-phenyl)-thiazol-2-ylcarbamoyl]-pyrrolidine-1-carboxylic acid benzyl ester] | 97 |
| O=C(NC1CNC1)c1ccc(-c2csc(NC(=O)[C@@H]3CCCN3C(=O)OCc3ccccc3)n2)cc1 [Compound 5337, 2-{4-[4-(Azetidin-3-ylcarbamoyl)-phenyl]-thiazol-2-ylcarbamoyl}-pyrrolidine-1-carboxylic acid benzyl ester] | 100 |
| O=C(Nc1nc(-c2ccc(C3CCCCC3)cc2)cs1)[C@@H]1CCCN1C(=O)OCc1ccccc1 [Compound 5024, 2-[4-(4-Cyclohexyl-phenyl)-thiazol-2-ylcarbamoyl]-pyrrolidine-1-carboxylic acid benzyl ester] | 11 |
| CC(C)c1ccc(-c2csc(NC(=O)[C@@H]3CCCN3C(=O)OCc3ccccc3)n2)cc1 [Compound 5069, 2-[4-(4-Isopropyl-phenyl)-thiazol-2-ylcarbamoyl]-pyrrolidine-1-carboxylic acid benzyl ester] | 3.15 |
| O=C(NC1CC1)c1ccc(-c2csc(NC(=O)[C@@H]3CCCN3C(=O)OCc3ccccc3)n2)o1 [Compound 5351, 2-[4-(5-Cyclopropylcarbamoyl-furan-2-yl)-thiazol-2-ylcarbamoyl]-pyrrolidine-1-carboxylic acid benzyl ester] | 22.3 |
| O=C(Nc1ncc(Cc2ccc(Cl)cc2)s1)[C@@H]1CCCN1C(=O)OCc1ccccc1 [Compound 5063, 2-[5-(4-Chloro-benzyl)-thiazol-2-ylcarbamoyl]-pyrrolidine-1-carboxylic acid benzyl ester] | 51.7 |
| CCC(=O)Nc1ccc(-c2csc(NC(=O)[C@@H]3CCCN3C(=O)OCc3ccccc3)n2)cc1 [Compound 5017, 2-[4-(4-Propionylamino-phenyl)-thiazol-2-ylcarbamoyl]-pyrrolidine-1-carboxylic acid benzyl ester] | 99.7 |
| CC(=O)c1ccc(-c2csc(NC(=O)[C@@H]3CCCN3C(=O)OCc3ccccc3)n2)cc1 [Compound 5309, 2-[4-(4-Acetyl-phenyl)-thiazol-2-ylcarbamoyl]-pyrrolidine-1-carboxylic acid benzyl ester] | 99.5 |
| O=C(Nc1nc(-c2cccc3ccccc23)cs1)[C@@H]1CCCN1C(=O)OCc1ccccc1 [Compound 5055, 2-(4-Naphthalen-1-yl-thiazol-2-ylcarbamoyl)-pyrrolidine-1-carboxylic acid benzyl ester] | 99.3 |
| Cc1ccc(S(=O)(=O)Cc2csc(NC(=O)[C@@H]3CCCN3C(=O)OCc3ccccc3)n2)cc1 [Compound 5033, 2-[4-(Toluene-4-sulfonylmethyl)-thiazol-2-ylcarbamoyl]-pyrrolidine-1-carboxylic acid benzyl ester] | 2.51 |
| Cc1ccc(C)c(-c2cnc(NC(=O)[C@@H]3CCCN3C(=O)OCc3ccccc3)s2)c1 [Compound 5042, 2-[5-(2,5-Dimethyl-phenyl)-thiazol-2-ylcarbamoyl]-pyrrolidine-1-carboxylic acid benzyl ester] | 90.3 |
| CC(C)NC(=O)c1ccc(-c2csc(NC(=O)C3CCCN3C(=O)OCc3ccccc3)n2)cc1 (centres unmarked) [Compound 5117, 2-[4-(4-Isopropylcarbamoyl-phenyl)-thiazol-2-ylcarbamoyl]-pyrrolidine-1-carboxylic acid benzyl ester] | 99.8 |
| O=C(Nc1nc(Sc2nnc(-c3ccccc3)o2)cs1)[C@@H]1CCCN1C(=O)OCc1ccccc1 [Compound 5010, 2-[4-(5-Phenyl-[1,3,4]oxadiazol-2-ylsulfanyl)-thiazol-2-ylcarbamoyl]-pyrrolidine-1-carboxylic acid benzyl ester] | 6.41 |
